Patent US12252524B2, “GIP/GLP1 co-agonist compounds” (Eli Lilly and Company, priority 2018, dated 2025)
Numbered stars: 1 amine (or outer) side, 2 acyl side, 3 side chain; on linkers, the order of the positions; unused ones are H or OH. Square brackets hold non-standard residues; d marks the D form. Side chains are listed from the residue outwards. Peptide text beside a SMILES is read from it. * marks the point of attachment. C20 diacid = O=C(O)CCCCCCCCCCCCCCCCCCC(=O)*; C18 diacid = O=C(O)CCCCCCCCCCCCCCCCC(=O)*; αMePhe(2-F) = C[C@](N)(Cc1ccccc1F)C(=O)O; γGlu = O=C(O)[C@H](CCC(=O)[*:2])N[*:1]; Desaminohistidyl = O=C(CCc1c[nH]cn1)*; Desaminotyrosyl = O=C(CCc1ccc(O)cc1)*; αMeY = C[C@](N)(Cc1ccc(O)cc1)C(=O)O; αMeL = CC(C)C[C@](C)(N)C(=O)O; αMeP = C[C@@]1(C(=O)O)CCCN1; Orn = NCCC[C@H](N)C(=O)O; AEEA = NCCOCCOCC(=O)O; Aib = CC(C)(N)C(=O)O

Assays:
[1] = target: human GLP-1 receptor (GLP-1R) (Homo sapiens, UniProt P43220); assay: cAMP pharmacological functional assay in presence of casein, hGLP-1R; assay type: cell-based; conditions: HEK293 cells expressing hGLP-1R, 0.1% Casein, geometric mean; read-out: hGLP1R cAMP Rel EC50 nM (SEM, n)
human GLP-1 receptor (GLP-1R), sequence (P43220 24-463): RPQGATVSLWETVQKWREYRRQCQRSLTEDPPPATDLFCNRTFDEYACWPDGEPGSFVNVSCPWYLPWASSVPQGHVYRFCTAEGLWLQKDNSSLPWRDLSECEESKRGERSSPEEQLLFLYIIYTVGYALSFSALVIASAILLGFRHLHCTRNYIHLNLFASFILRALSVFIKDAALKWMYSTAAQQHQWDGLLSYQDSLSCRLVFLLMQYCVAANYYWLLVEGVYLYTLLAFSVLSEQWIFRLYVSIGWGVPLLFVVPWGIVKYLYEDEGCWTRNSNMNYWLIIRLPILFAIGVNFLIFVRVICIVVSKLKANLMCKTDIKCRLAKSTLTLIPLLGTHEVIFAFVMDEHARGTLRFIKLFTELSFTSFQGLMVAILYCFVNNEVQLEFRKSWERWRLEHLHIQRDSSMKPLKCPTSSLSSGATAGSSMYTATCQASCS

[2] = target: T1, gastric inhibitory peptide receptor (GIPR) (Homo sapiens, UniProt P48546); assay: cAMP pharmacological functional assay in presence of casein, hGIPR; assay type: cell-based; conditions: HEK293 cells expressing hGIPR, 0.1% Casein, geometric mean; read-out: hGIPR cAMP Rel EC50 nM (SEM, n)
T1 sequence (P48546 22-466): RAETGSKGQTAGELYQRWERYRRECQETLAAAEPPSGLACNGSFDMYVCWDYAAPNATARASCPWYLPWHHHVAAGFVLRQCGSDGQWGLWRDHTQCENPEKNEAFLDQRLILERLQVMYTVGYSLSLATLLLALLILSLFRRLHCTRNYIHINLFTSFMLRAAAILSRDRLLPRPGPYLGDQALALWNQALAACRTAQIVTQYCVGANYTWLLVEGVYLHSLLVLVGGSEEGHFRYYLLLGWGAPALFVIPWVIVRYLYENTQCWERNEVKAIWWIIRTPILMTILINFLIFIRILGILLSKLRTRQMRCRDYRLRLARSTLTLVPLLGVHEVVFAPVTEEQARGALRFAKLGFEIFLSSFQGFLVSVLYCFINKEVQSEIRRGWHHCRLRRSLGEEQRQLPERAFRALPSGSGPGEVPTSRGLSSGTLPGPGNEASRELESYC

Structure (SMILES)	EC50 [1] [nM]	EC50 [2] [nM]
CC[C@H](C)[C@H](NC(=O)[C@H](CC(C)C)NC(=O)[C@H](Cc1ccc(O)cc1)NC(=O)[C@H](CCC(=O)O)NC(=O)[C@@H](NC(=O)[C@H](Cc1ccccc1)NC(=O)[C@H](C)NC(=O)[C@H](CCC(N)=O)NC(=O)[C@H](CCC(N)=O)NC(=O)[C@H](C)NC(=O)[C@H](CCCCNC(=O)COCCOCCNC(=O)COCCOCCNC(=O)CC[C@H](NC(=O)CCCCCCCCCCCCCCCCC(=O)O)C(=O)O)NC(=O)[C@H](CCC(=O)O)NC(=O)[C@H](CC(=O)O)NC(=O)[C@H](CC(C)C)NC(=O)[C@H](CC(C)C)NC(=O)[C@@H](NC(=O)[C@H](CO)NC(=O)[C@H](Cc1ccc(O)cc1)NC(=O)[C@H](CC(=O)O)NC(=O)[C@H](CO)NC(=O)[C@@H](NC(=O)[C@H](Cc1ccccc1)NC(=O)[C@@H](NC(=O)CNC(=O)[C@H](CCC(=O)O)NC(=O)[C@]1(C)CCCN1C(=O)[C@H](N)Cc1ccc(O)cc1)[C@@H](C)O)[C@@H](C)O)[C@@H](C)CC)[C@@H](C)CC)C(=O)N[C@@H](CCC(=O)O)C(=O)NCC(=O)NCC(=O)N1CCC[C@H]1C(=O)N[C@@H](CO)C(=O)N[C@@H](CO)C(=O)NCC(N)=O [Example 198] (H-[dY][αMeP]EGTFTSDYSILLDEK([AEEA-AEEA-γGlu-C18 diacid])AQQAFIEYLIEGGPSSG-NH2)	0.139	> 30
CC[C@H](C)[C@H](NC(=O)[C@H](CC(C)C)NC(=O)[C@H](Cc1ccc(O)cc1)NC(=O)[C@H](CCC(=O)O)NC(=O)[C@@H](NC(=O)[C@H](Cc1ccccc1)NC(=O)[C@H](C)NC(=O)[C@H](CCC(N)=O)NC(=O)[C@H](CCC(N)=O)NC(=O)[C@H](C)NC(=O)[C@H](CCCCNC(=O)COCCOCCNC(=O)COCCOCCNC(=O)CC[C@H](NC(=O)CCCCCCCCCCCCCCCCCCC(=O)O)C(=O)O)NC(=O)[C@H](CCC(=O)O)NC(=O)[C@H](CC(=O)O)NC(=O)[C@H](CC(C)C)NC(=O)[C@H](CC(C)C)NC(=O)[C@@H](NC(=O)[C@H](CO)NC(=O)[C@H](Cc1ccc(O)cc1)NC(=O)[C@H](CC(=O)O)NC(=O)[C@H](CO)NC(=O)[C@@H](NC(=O)[C@H](Cc1ccccc1)NC(=O)[C@@H](NC(=O)CNC(=O)[C@H](CCC(=O)O)NC(=O)C(C)(C)NC(=O)CCc1ccc(O)cc1)[C@@H](C)O)[C@@H](C)O)[C@@H](C)CC)[C@@H](C)CC)C(=O)N[C@@H](CCC(=O)O)C(=O)NCC(=O)NCC(=O)N1CCC[C@H]1C(=O)N[C@@H](CO)C(=O)N[C@@H](CO)C(=O)NCC(=O)N[C@@H](C)C(=O)N1CCC[C@H]1C(=O)N1CCC[C@H]1C(=O)N1CCC[C@H]1C(=O)N[C@@H](CO)C(N)=O [Example 199] (Desaminotyrosyl-[Aib]EGTFTSDYSILLDEK([AEEA-AEEA-γGlu-C20 diacid])AQQAFIEYLIEGGPSSGAPPPS-NH2)	0.0422	> 30
CC[C@H](C)[C@H](NC(=O)[C@H](CC(C)C)NC(=O)[C@H](Cc1ccc(O)cc1)NC(=O)[C@H](CCC(=O)O)NC(=O)[C@@H](NC(=O)[C@H](Cc1ccccc1)NC(=O)[C@H](C)NC(=O)[C@H](CCC(N)=O)NC(=O)[C@H](CCC(N)=O)NC(=O)[C@H](C)NC(=O)[C@H](CCCCNC(=O)COCCOCCNC(=O)COCCOCCNC(=O)CC[C@H](NC(=O)CCCCCCCCCCCCCCCCCCC(=O)O)C(=O)O)NC(=O)[C@H](CCC(=O)O)NC(=O)[C@H](CC(=O)O)NC(=O)[C@H](CC(C)C)NC(=O)[C@H](CC(C)C)NC(=O)[C@@H](NC(=O)[C@H](CO)NC(=O)[C@H](Cc1ccc(O)cc1)NC(=O)[C@H](CC(=O)O)NC(=O)[C@H](CO)NC(=O)[C@@H](NC(=O)[C@H](Cc1ccccc1)NC(=O)[C@@H](NC(=O)CNC(=O)[C@H](CCC(=O)O)NC(=O)[C@]1(C)CCCN1C(=O)CCc1c[nH]cn1)[C@@H](C)O)[C@@H](C)O)[C@@H](C)CC)[C@@H](C)CC)C(=O)N[C@@H](CCC(=O)O)C(=O)NCC(=O)NCC(=O)N1CCC[C@H]1C(=O)N[C@@H](CO)C(=O)N[C@@H](CO)C(=O)NCC(=O)N[C@@H](C)C(=O)N1CCC[C@H]1C(=O)N1CCC[C@H]1C(=O)N1CCC[C@H]1C(=O)N[C@@H](CO)C(N)=O [Example 201] (Desaminohistidyl-[αMeP]EGTFTSDYSILLDEK([AEEA-AEEA-γGlu-C20 diacid])AQQAFIEYLIEGGPSSGAPPPS-NH2)	0.0385	> 30
CC[C@H](C)[C@H](NC(=O)[C@H](CC(C)C)NC(=O)[C@](C)(Cc1ccc(O)cc1)NC(=O)[C@@H](CCC(=O)O)NC(=O)[C@@H](NC(=O)[C@H](Cc1ccccc1)NC(=O)[C@@H](NC(=O)C(C)(C)NC(=O)[C@H](CCC(N)=O)NC(=O)[C@H](C)NC(=O)[C@H](CCCCNC(=O)COCCOCCNC(=O)COCCOCCNC(=O)CC[C@H](NC(=O)CCCCCCCCCCCCCCCCC(=O)O)C(=O)O)NC(=O)[C@H](CCCN)NC(=O)[C@H](CC(=O)O)NC(=O)[C@H](CC(C)C)NC(=O)[C@](C)(CC(C)C)NC(=O)[C@@H](NC(=O)[C@H](CO)NC(=O)[C@H](C)NC(=O)[C@H](CC(=O)O)NC(=O)[C@H](CO)NC(=O)[C@@H](NC(=O)[C@](C)(Cc1ccccc1F)NC(=O)[C@@H](NC(=O)CNC(=O)[C@H](CCC(=O)O)NC(=O)C(C)(C)NC(=O)[C@@H](N)Cc1ccc(O)cc1)[C@@H](C)O)[C@@H](C)O)[C@@H](C)CC)[C@@H](C)O)[C@@H](C)CC)C(=O)N[C@@H](CCC(=O)O)C(=O)NCC(=O)NCC(=O)N1CCC[C@H]1C(=O)N[C@@H](CO)C(=O)N[C@@H](CO)C(=O)NCC(=O)N[C@@H](C)C(=O)N1CCC[C@H]1C(=O)N1CCC[C@H]1C(=O)N1CCC[C@H]1C(=O)N[C@@H](CO)C(N)=O [Example 245] (H-Y[Aib]EGT[αMePhe(2-F)]TSDASI[αMeL]LD[Orn]K([AEEA-AEEA-γGlu-C18 diacid])AQ[Aib]TFI[dE][αMeY]LIEGGPSSGAPPPS-NH2)	0.0222	0.0552
CC[C@H](C)[C@H](NC(=O)[C@H](CC(C)C)NC(=O)[C@H](Cc1ccc(O)cc1)NC(=O)[C@H](CCC(=O)O)NC(=O)[C@@H](NC(=O)[C@H](Cc1ccccc1)NC(=O)[C@H](C)NC(=O)[C@H](CCCCN)NC(=O)[C@H](CCC(N)=O)NC(=O)[C@H](C)NC(=O)[C@H](CCCCNC(=O)COCCOCCNC(=O)COCCOCCNC(=O)CC[C@H](NC(=O)CCCCCCCCCCCCCCCCCCC(=O)O)C(=O)O)NC(=O)[C@H](CCCCN)NC(=O)[C@H](CC(=O)O)NC(=O)[C@H](CC(C)C)NC(=O)[C@H](CC(C)C)NC(=O)[C@@H](NC(=O)[C@H](CO)NC(=O)[C@H](Cc1ccc(O)cc1)NC(=O)[C@H](CC(=O)O)NC(=O)[C@H](CO)NC(=O)[C@@H](NC(=O)[C@H](Cc1ccccc1)NC(=O)[C@@H](NC(=O)CNC(=O)[C@H](CCC(=O)O)NC(=O)C(C)(C)NC(=O)[C@@H](N)Cc1ccc(O)cc1)[C@@H](C)O)[C@@H](C)O)[C@@H](C)CC)[C@@H](C)CC)C(=O)N[C@@H](CCC(=O)O)C(=O)NCC(=O)NCC(=O)N1CCC[C@H]1C(=O)N[C@@H](CO)C(=O)N[C@@H](CO)C(=O)NCC(=O)N[C@@H](C)C(=O)N1CCC[C@H]1C(=O)N1CCC[C@H]1C(=O)N1CCC[C@H]1C(=O)N[C@@H](CO)C(N)=O [Example 256]	0.0506	0.643
CC[C@H](C)[C@H](NC(=O)[C@H](CC(C)C)NC(=O)[C@H](Cc1ccc(O)cc1)NC(=O)[C@H](CCC(=O)O)NC(=O)[C@@H](NC(=O)[C@H](Cc1ccccc1)NC(=O)[C@H](C)NC(=O)[C@H](CCCNC(=N)N)NC(=O)[C@H](CCC(N)=O)NC(=O)[C@H](C)NC(=O)[C@H](CCCCNC(=O)COCCOCCNC(=O)COCCOCCNC(=O)CC[C@H](NC(=O)CCCCCCCCCCCCCCCCCCC(=O)O)C(=O)O)NC(=O)[C@H](CCCCN)NC(=O)[C@H](CC(=O)O)NC(=O)[C@H](CC(C)C)NC(=O)[C@H](CC(C)C)NC(=O)[C@@H](NC(=O)[C@H](CO)NC(=O)[C@H](Cc1ccc(O)cc1)NC(=O)[C@H](CC(=O)O)NC(=O)[C@H](CO)NC(=O)[C@@H](NC(=O)[C@H](Cc1ccccc1)NC(=O)[C@@H](NC(=O)CNC(=O)[C@H](CCC(=O)O)NC(=O)C(C)(C)NC(=O)[C@@H](N)Cc1ccc(O)cc1)[C@@H](C)O)[C@@H](C)O)[C@@H](C)CC)[C@@H](C)CC)C(=O)N[C@@H](CCC(=O)O)C(=O)NCC(=O)NCC(=O)N1CCC[C@H]1C(=O)N[C@@H](CO)C(=O)N[C@@H](CO)C(=O)NCC(=O)N[C@@H](C)C(=O)N1CCC[C@H]1C(=O)N1CCC[C@H]1C(=O)N1CCC[C@H]1C(=O)N[C@@H](CO)C(N)=O [Example 257] (H-Y[Aib]EGTFTSDYSILLDKK([AEEA-AEEA-γGlu-C20 diacid])AQRAFIEYLIEGGPSSGAPPPS-NH2; N-terminus assumed)	0.0779	0.474
